Entries after “also recorded” stand apart in the source; their conditions may differ.
Test system: mucosal Th1 and Th2 cells
Assay: Frequencies and cytokine levels of macaque rectal mucosal T cells following SAMT-247 and PMA stimulation
Assay type: cell-based
Source text: Additionally, rectal tissue from 9 macaques was used for an in vitro study. The age-matched macaques from this separate study (P204) included 4 animals vaccinated against HIV and 5 naïve animals, all challenged with SHIV. Rectal tissue was obtained post challenge from 7 infected and 2 uninfected animals for the P204 study analysis. Extra cells were available from that collection and were used here for the in vitro study.
Frequencies and cytokine levels of macaque rectal mucosal NK cells and T cells following SAMT-247 and PMA stimulation. NK/ILC and T cell frequencies and cytokine levels were measured in macaque rectal mucosa. Freshly collected rectal biopsies were processed to single cells and cultured in R10 in the presence/or absence of SAMT-247 and/or PMA for 12 hours. Subsequently, cells were stained for live cells with Live/Dead Blue dye (cat. #L34962, 0.5 μl) from Thermofisher; followed by surface staining with the following: BUV737 anti-CD3 (SP34-2; cat. #741872, 5 μl), BV711 anti-CD4 (L200; cat. #563913, 5 μl), BV650 anti-NKp44 (P44-8; cat. #744302, 5 μl), Alexa700 anti-CD20 (2H7; cat. #560631, 5 μl), BV786 anti-CD45 (D058-1283; cat. #563861, 5 μl) from BD Biosciences; APC-H7 anti-CD11b (ICRF44; cat. #47-0118-42, 5 μl), PE-Cy5 anti-CD95 (ICRF44; cat. #15-0959-42, 5 μl) from eBioscience; BV570 anti-CD8 (RPA-T8; cat. #301038, 5 μl), BV605 anti-CCR6 (G034E3; cat. #353420, 5 μl), APC anti-CXCR3 (G025H7; cat. #353708, 5 μl), from Biolegend and PE-Cy7 anti-NKG2A (Z199; cat. #B10246, 5 μl) from Beckman coulter for 30 minutes at room temperature. This was followed by permeabilization with a FOX3-transcription buffer set (cat. #00-5523-00) from eBioscience according to the manufacture's recommendation and subsequently intracellular staining with the following: BV750 anti-TNF-α (MAB11; cat. #566359, 5 μl), BUV395 anti-IFN-γ (B27; cat. #563563, 5 μl), BV510 anti-GranB (GB11; cat. #563388, 5 μl), BV421 anti-IL-10 (JES3-9D7; cat. #564053, 5 μl) from BD Biosciences; PE-Cy5.5 anti-IL-17 (BL168; cat. #512314, 5 μl) from Biolegend; and FITC anti-Perforin (pf-344; cat. #3465-7, 5 μl) from MABTECH for 30 minutes at room temperature. Flow cytometry acquisitions were performed on a FACSymphony A5 and examined using FACSDiva software (BD Biosciences).

CCCCCCCCCCCCCC(=O)O[C@@H]1[C@@H](C)[C@@]2(O)[C@@H](C=C(CO)C[C@]3(O)C(=O)C(C)=C[C@@H]23)[C@@H]2C(C)(C)[C@]12OC(C)=O [PMA]
overall mucosal Th1 and Th2 cell frequencies (PMA stimulation): did not change
Cytokines, Unstim vs PMA Stimulation (mucosal Th1): >TNF-α; also recorded: >IL-10; also recorded: >IFN-γ
Cytokines, Unstim vs PMA Stimulation (mucosal Th2): >IFN-γ; also recorded: >TNF-α; also recorded: >IL-10
